In PubChem BioAssay AID651630 (Sanford-Burnham Center for Chemical Genomics, 2012) one finds IC50 and IC50 cytotoxicity (DAPI nuclear signal decrease) data, which are given here for 26 compounds.

Assay [1] has as its system TAG. The assay is described as follows: triacylglycerol accumulation inhibitor potency, dose response, cell-based, panel, Nile Red and DAPI fluorescence, H9c2 (AID 651630).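 Also: cells exposed to compound overnight before fixation and staining.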 The note with it: H9c2 cells, Nile Red TAG fluorescence, oleic acid.
The subject of assay [2] is DAPI. The assay is described as above. The note with it: H9c2 cells, DAPI nuclear fluorescence (cytotoxicity counter-readout), oleic acid.

A word on the IC50: it is the concentration that inhibits the measured activity by half.

Activity calls are given as the source filed them.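 The calls were made as follows: active = lipid-stain IC50 at or below a set limit, with nuclear-stain toxicity IC50 at least five times higher; inactive = the rest.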

In the case of `CSC1=NC(C(Cl)(Cl)Cl)N=C(c2ccc(C)cc2)N1` (stereo not drawn), the values for the IC50 in assay [1] (mean of runs), in assay [1] (run 1) and in assay [1] (run 2) were > 25 µM (inactive), greater than 25 µM and greater than 25 µM, respectively. In addition, the IC50 cytotoxicity (DAPI nuclear signal decrease) was > 25 µM (inactive) in assay [2] (mean of runs), greater than 25 µM in assay [2] (run 1) and greater than 25 µM in assay [2] (run 2).
Consider `COc1ccccc1NC(=O)N1CCC(c2nc3cc(C)c(C)cc3[nH]2)CC1`, for which the IC50 was > 25 µM (inactive) in assay [1] (mean of runs), greater than 25 µM in assay [1] (run 1) and greater than 25 µM in assay [1] (run 2). Also, the IC50 cytotoxicity (DAPI nuclear signal decrease) is > 25 µM (inactive) in assay [2] (mean of runs), greater than 25 µM in assay [2] (run 1) and greater than 25 µM in assay [2] (run 2).
As for `Cc1cc(C)nc(NC(=NCCc2c[nH]c3ccccc23)NC(=O)Nc2ccc(Cl)c(Cl)c2)n1`, the values for the IC50 in assay [1] (mean of runs), in assay [1] (run 1) and in assay [1] (run 2) were 10.2 µM, 8.52 µM and 11.8 µM, respectively. In addition, the results for the IC50 cytotoxicity (DAPI nuclear signal decrease) in assay [2] (mean of runs), in assay [2] (run 1) and in assay [2] (run 2) were > 25 µM (inactive), greater than 25 µM and greater than 25 µM, respectively.
Consider `CNC(=S)NN=C(C)c1ccc(OC)cc1O`, for which the IC50 in assay [1] (mean of runs) is > 25 µM (inactive); in assay [1] (run 1), greater than 25 µM; in assay [1] (run 2), greater than 25 µM. Further, the IC50 cytotoxicity (DAPI nuclear signal decrease) in assay [2] (mean of runs) is > 25 µM (inactive); in assay [2] (run 1), greater than 25 µM; in assay [2] (run 2), greater than 25 µM.
Take `COc1ccc(CC(N)c2csc(NC(=O)NCc3ccccc3)n2)cc1` (stereo not drawn): the IC50 is 17.9 µM (inactive) in assay [1] (mean of runs), 20.2 µM in assay [1] (run 1) and 15.5 µM in assay [1] (run 2). Besides, the IC50 cytotoxicity (DAPI nuclear signal decrease) in assay [2] (mean of runs) is > 25 µM (inactive); in assay [2] (run 1), greater than 25 µM; in assay [2] (run 2) it was greater than 25 µM.
Turning to `COc1ccc(/C=C2/CCCc3ccccc3C2=O)cc1`, the IC50 in assay [1] (mean of runs) is > 25 µM (inactive); in assay [1] (run 1), greater than 25 µM; in assay [1] (run 2), greater than 25 µM. Besides, the values for the IC50 cytotoxicity (DAPI nuclear signal decrease) in assay [2] (mean of runs), in assay [2] (run 1) and in assay [2] (run 2) were > 25 µM (inactive), greater than 25 µM and greater than 25 µM, respectively.
For the compound `CN(C)CCCn1c(=O)n(C2CCCCC2)c(=O)c2c3c(sc21)CCCCC3`, the IC50 in assay [1] (mean of runs) is > 25 µM (inactive); in assay [1] (run 1), greater than 25 µM; in assay [1] (run 2), greater than 25 µM. Moreover, the IC50 cytotoxicity (DAPI nuclear signal decrease) in assay [2] (mean of runs) is > 25 µM (inactive); in assay [2] (run 1), greater than 25 µM; in assay [2] (run 2), greater than 25 µM.
As to `Oc1ccc(C[C@H]2CNC(=S)N2CC2CCCN2C[C@H](Cc2ccc(O)cc2)N2C[C@H](Cc3ccc(O)cc3)N(CC3CCCCCC3)C2=S)cc1` (stereo partly drawn), the IC50 in assay [1] (mean of runs) was 8.6 µM; in assay [1] (run 1), 7.31 µM; in assay [1] (run 2), 9.89 µM. Further, the figures for the IC50 cytotoxicity (DAPI nuclear signal decrease) in assay [2] (mean of runs), in assay [2] (run 1) and in assay [2] (run 2) were > 25 µM (inactive), greater than 25 µM and greater than 25 µM, respectively.
Turning to `O=C(Cc1coc2ccc3ccccc3c12)Nc1nccs1`, the IC50 is > 25 µM (inactive) in assay [1] (mean of runs), greater than 25 µM in assay [1] (run 1) and greater than 25 µM in assay [1] (run 2). Further, the IC50 cytotoxicity (DAPI nuclear signal decrease) in assay [2] (mean of runs) is > 25 µM (inactive); in assay [2] (run 1), greater than 25 µM; in assay [2] (run 2) it was greater than 25 µM.
Regarding `C=CCC[C@@H](Cc1ccc(F)cc1)C(=O)OC[C@@H](Cc1c[nH]c2ccccc12)NC(=O)[C@H](CC=C)CC(=O)N(CCO)Cc1ccccc1`, the IC50 is 6.99 µM in assay [1] (mean of runs), 6.29 µM in assay [1] (run 1) and 7.69 µM in assay [1] (run 2). The IC50 cytotoxicity (DAPI nuclear signal decrease) in assay [2] (mean of runs) is > 25 µM (inactive); in assay [2] (run 1), greater than 25 µM; in assay [2] (run 2), greater than 25 µM.
As for `CCN(CC)CCNc1ncnc2c1sc1nc(N3CCCC3)c3c(c12)CC(C)(C)OC3`, the figures for the IC50 in assay [1] (mean of runs), in assay [1] (run 1) and in assay [1] (run 2) were 18 µM (inactive), 16.9 µM and 19.1 µM, respectively. Further, the IC50 cytotoxicity (DAPI nuclear signal decrease) in assay [2] (mean of runs) was > 25 µM (inactive); in assay [2] (run 1) it was greater than 25 µM; in assay [2] (run 2), greater than 25 µM.
For the compound `CN(C)CCNC(=O)C(=O)Nc1ccc2c(c1)N(S(=O)(=O)c1cccs1)CCC2`, the IC50 in assay [1] (mean of runs) was > 25 µM (inactive); in assay [1] (run 1), greater than 25 µM; in assay [1] (run 2) it was greater than 25 µM. Moreover, the IC50 cytotoxicity (DAPI nuclear signal decrease) in assay [2] (mean of runs) was > 25 µM (inactive); in assay [2] (run 1), greater than 25 µM; in assay [2] (run 2) it was greater than 25 µM.
Regarding `COc1ccccc1NC1=NC(c2ccc(Cl)cc2)N=C(N)N1` (stereo not drawn), the values for the IC50 in assay [1] (mean of runs), in assay [1] (run 1) and in assay [1] (run 2) were > 25 µM (inactive), greater than 25 µM and greater than 25 µM, respectively. In addition, the IC50 cytotoxicity (DAPI nuclear signal decrease) in assay [2] (mean of runs) was > 25 µM (inactive); in assay [2] (run 1), greater than 25 µM; in assay [2] (run 2), greater than 25 µM.
For `COc1ccc(CNC(=O)C2CCN(c3nc(-c4ccccc4)nc4c3CCC4)CC2)cc1`, the IC50 in assay [1] (mean of runs) was 13.8 µM; in assay [1] (run 1), 11.5 µM; in assay [1] (run 2), 16.1 µM. The IC50 cytotoxicity (DAPI nuclear signal decrease) in assay [2] (mean of runs) is > 25 µM (inactive); in assay [2] (run 1), greater than 25 µM; in assay [2] (run 2), greater than 25 µM.
For `COc1cccc(N=Nc2c(O)[nH]c(=S)[nH]c2=O)c1`, the results for the IC50 in assay [1] (mean of runs), in assay [1] (run 1) and in assay [1] (run 2) were > 25 µM (inactive), greater than 25 µM and greater than 25 µM, respectively. The IC50 cytotoxicity (DAPI nuclear signal decrease) is 6.31 µM in assay [2] (run 1) and greater than 25 µM in assay [2] (run 2).
In the case of `Cc1ccc2c(=O)n3c(nc2c1)C(Cc1ccc(O)cc1)NC(=O)c1cc2ccccc2cc1-3` (stereo not drawn), the figures for the IC50 in assay [1] (mean of runs), in assay [1] (run 1) and in assay [1] (run 2) were > 25 µM (inactive), greater than 25 µM and greater than 25 µM, respectively. For the same compound, the results for the IC50 cytotoxicity (DAPI nuclear signal decrease) in assay [2] (mean of runs), in assay [2] (run 1) and in assay [2] (run 2) were > 25 µM (inactive), greater than 25 µM and greater than 25 µM, respectively.
For the compound `O=[N+]([O-])c1ccc(Nc2nc(NC3CCCCC3)nc(N3CCCC3)n2)cc1`, the IC50 in assay [1] (run 1) was greater than 25 µM; in assay [1] (run 2), 11.1 µM. The IC50 cytotoxicity (DAPI nuclear signal decrease) was > 25 µM (inactive) in assay [2] (mean of runs), greater than 25 µM in assay [2] (run 1) and greater than 25 µM in assay [2] (run 2).
As to `C[C@H]1CN([C@@H](C)CO)C(=O)c2cc(NC(=O)Nc3cccc4ccccc34)ccc2O[C@@H]1CN(C)Cc1ccc(-c2ccccc2)cc1`, the IC50 was 20.2 µM in assay [1] (run 1) and greater than 25 µM in assay [1] (run 2). Moreover, the IC50 cytotoxicity (DAPI nuclear signal decrease) in assay [2] (mean of runs) was > 25 µM (inactive); in assay [2] (run 1) it was greater than 25 µM; in assay [2] (run 2), greater than 25 µM.
As to `CC1(C)Cc2nc3sc4c(SCC(=O)NCc5ccco5)ncnc4c3cc2CO1`, the IC50 was > 25 µM (inactive) in assay [1] (mean of runs), greater than 25 µM in assay [1] (run 1) and greater than 25 µM in assay [1] (run 2). Also, the IC50 cytotoxicity (DAPI nuclear signal decrease) in assay [2] (mean of runs) is > 25 µM (inactive); in assay [2] (run 1) it was greater than 25 µM; in assay [2] (run 2), greater than 25 µM.
For `CCC(C)(C)NC(=O)C(c1ccc(C)cc1)N(Cc1ccco1)C(=O)CCC(=O)Nc1nccs1` (stereo not drawn), the IC50 is 6.82 µM in assay [1] (mean of runs), 4.82 µM in assay [1] (run 1) and 8.81 µM in assay [1] (run 2). Also, the IC50 cytotoxicity (DAPI nuclear signal decrease) in assay [2] (mean of runs) is > 25 µM (inactive); in assay [2] (run 1), greater than 25 µM; in assay [2] (run 2), greater than 25 µM.
On to `Cc1ccc(NC(=O)c2nc[nH]c2C(=O)NCCCCCCNC(=O)c2[nH]cnc2C(=O)Nc2ccc(C)cc2)cc1`, for which the results for the IC50 in assay [1] (mean of runs), in assay [1] (run 1) and in assay [1] (run 2) were 9.03 µM, 8.97 µM and 9.09 µM, respectively. The IC50 cytotoxicity (DAPI nuclear signal decrease) in assay [2] (mean of runs) was > 25 µM (inactive); in assay [2] (run 1) it was greater than 25 µM; in assay [2] (run 2), greater than 25 µM.
`CN(C)c1ccc(NC(=O)Nc2nc(C(N)C3CCCCC3)cs2)cc1` (stereo not drawn): the IC50 is > 25 µM (inactive) in assay [1] (mean of runs), greater than 25 µM in assay [1] (run 1) and greater than 25 µM in assay [1] (run 2). Moreover, the IC50 cytotoxicity (DAPI nuclear signal decrease) is > 25 µM (inactive) in assay [2] (mean of runs), greater than 25 µM in assay [2] (run 1) and greater than 25 µM in assay [2] (run 2).
Regarding `NC(N)=Nc1ccc(C=C2C=Cc3ccccc32)cc1`, the results for the IC50 in assay [1] (mean of runs), in assay [1] (run 1) and in assay [1] (run 2) were 11.8 µM, 12.6 µM and 11.1 µM, respectively. For the same compound, the figures for the IC50 cytotoxicity (DAPI nuclear signal decrease) in assay [2] (mean of runs), in assay [2] (run 1) and in assay [2] (run 2) were 22.8 µM (inactive), 21.2 µM and 24.5 µM, respectively.
As for `Cc1cc(NC(=O)CSc2nc(-c3ccco3)cc(C(F)(F)F)n2)no1`, the IC50 was > 25 µM (inactive) in assay [1] (mean of runs), greater than 25 µM in assay [1] (run 1) and greater than 25 µM in assay [1] (run 2). For the same compound, the IC50 cytotoxicity (DAPI nuclear signal decrease) in assay [2] (mean of runs) is > 25 µM (inactive); in assay [2] (run 1) it was greater than 25 µM; in assay [2] (run 2), greater than 25 µM.
Consider `O=C(OCc1ccc(Br)cc1)c1cc([N+](=O)[O-])ccc1N1CCOCC1`, for which the IC50 is > 25 µM (inactive) in assay [1] (mean of runs), greater than 25 µM in assay [1] (run 1) and greater than 25 µM in assay [1] (run 2). The IC50 cytotoxicity (DAPI nuclear signal decrease) in assay [2] (mean of runs) was > 25 µM (inactive); in assay [2] (run 1), greater than 25 µM; in assay [2] (run 2), greater than 25 µM.
Regarding `CC1(C(=O)Nc2cccc(Oc3ccccc3)c2)Cc2c(-c3ccc4c(c3)OCO4)ccnc2O1` (stereo not drawn), the IC50 in assay [1] (mean of runs) was > 25 µM (inactive); in assay [1] (run 1) it was greater than 25 µM; in assay [1] (run 2) it was greater than 25 µM. Also, the IC50 cytotoxicity (DAPI nuclear signal decrease) in assay [2] (mean of runs) was > 25 µM (inactive); in assay [2] (run 1), greater than 25 µM; in assay [2] (run 2) it was greater than 25 µM.
